Results published in patent US20240173425A1, “HUMAN CD33 ANTIBODIES AND GLUCOCORTICOID CONJUGATES” (Eli Lilly and Company, priority 2022, published 2024).
Where two headings read alike, the source gives them in different places. Marks after values point to notes of the source that are not given here.

Legend:
[1] = system: human plasmacytoid dendritic cells (pDCs); assay: Plasmacytoid dendritic cell differentiation assay; type: cell-based; settings: human PBMCs, IL-3 supplemented media, CpG stimulation
Method: The differentiation of pDC was measured by flow cytometry. The functional effects of the pDC were measured by type I IFN (IFNα) production.

[2] = system: oxazolone-induced skin inflammation; assay: Oxazolone-induced contact hypersensitivity in humanized mouse model (HuNOG-EXL); type: in vivo; settings: Challenge 3, 3 mg/kg SC 1 hour prior to sensitization and each challenge
Method: (§1) Briefly, huNOG-EXL mice were engrafted at 6 weeks of age with human CD34+ hematopoietic stem cells isolated from human cord blood. 20-24 weeks after stem cell administration the mice were assessed for human CD45 engraftment (>25% in blood) and subjected to an oxazolone-induced contact hypersensitivity protocol. […] 24 hours (Day 1) post administration, the mice were anesthetized with 5% isoflurane, their abdomens shaved, and sensitized with 100 μL of 3% oxazolone in ethanol (applied to the shaved area). Mice were dosed again on Day 4, 11, and 16 as above, and challenged with 2% oxazolone in ethanol on both ears (10 μL/side/ear) 48 hours post each dose (Day 6—Challenge 1, Day 13—Challenge 2, and Day 18—Challenge 3). For the GC1 alone group, mice were dosed with 3 mg/kg SC 1 hour prior to sensitization and prior to each challenge. Upon final challenge, mice were euthanized, and ear tissue and the gastrocnemius was collected for analysis of target selective and non-target selective tissue expression of GC regulated genes.

human PBMCs = assay: Proinflammatory cytokine modulation in LPS-stimulated PBMCs; type: cell-based; settings: PBMC, 200 nM, LPS 100 pg/mL, 24 hours
Method: PBMCs were used to mimic in vivo conditions. […] The cells were then stimulated with LPS (Sigma cat. L2880) at 100 pg/mL in a 37° C. incubator for 24 hours. Culture supernatants were collected to measure the indicated cytokines (Proinflammatory Panel II (human) 4-Plex kits, MSD, K15053D-2).

FKBP5 gene expression = assay: GC regulated gene expression in tissues of the contact hypersensitivity model; type: in vivo, mouse; settings: 3 mg/kg
Method: as §1

## Cc1ccc(OCc2cccc(N)c2)c(F)c1[C@H]1O[C@@H]2C[C@H]3[C@@H]4CCC5=CC(=O)C=C[C@]5(C)[C@H]4[C@@H](O)C[C@]3(C)[C@]2(C(=O)CO)O1 (single isomer, unassigned) [GC1]
[1]
  % Inhibition of human IFNα secretion: 97.18 ± 2.95%
[1]; flow cytometry
  % Inhibition of pDC cell differentiation: 95.50 ± 8.32%
[2]
  Δ Ear thickness, Mean: 0.018*^ mm
Human PBMCs; read-out: % Inhibition of human IL-6 secretion at 200 nM
  inhibition at 0.2 µM: 83.9 ± 2.81%
Human PBMCs; read-out: % Inhibition of human TNFa secretion at 200 nM
  inhibition at 0.2 µM: 85.1 ± 3.28%
FKBP5 gene expression; non-targeted tissue (Gastrocnemius)
  Fold increase in FKBP5 gene expression compared to Isotype, Gastrocnemius, Mean: 3.958
FKBP5 gene expression; targeted tissue (Ear)
  Fold increase in FKBP5 gene expression compared to Isotype, Ear, Mean: 4.505
